The results in this text go back to US20110165183A1, “PIPERIDINE DERIVATIVES AS JAK3 INHIBITORS” (BioCryst Pharmaceuticals, Inc., priority 2008, published 2011).

What is called melting point is the temperature of the solid-liquid transition. On to `C[C@@H]1CCN(C(=O)CC#N)C[C@@H]1N(C)c1ncnc2ccoc12` [Example 2, 3-((3R,4R)-3-(furo[3,2-d]pyrimidin-4-yl(methyl)amino)-4-methylpiperidin-1-yl)-3-oxopropanenitrile], for which the melting point came out at 107.7 °C.
Regarding `C[C@@H]1CCN(C(=O)CC#N)C[C@@H]1N(C)c1ncnn2ccnc12` [Example 4, 3-((3R,4R)-3-(Imidazo[1,2-f][1,2,4]triazin-4-yl(methyl)amino)-4-methylpiperidin-1-yl)-3-oxopropanenitrile], the melting point was found to be 72 °C.
The value for `Cc1cc(N(C)[C@H]2CN(C(=O)CC#N)CC[C@H]2C)n2ncnc2n1` [Example 8, 3-((3R,4R)-4-Methyl-3-(methyl(5-methyl-1,2,41-triazolo[1,5-a]pyrimidin-7-yl)amino)piperidin-1-yl)-3-oxopropanenitrile] was 119.3 °C; that for `C[C@@H]1CCN(C(=O)CC#N)C[C@@H]1N(C)c1ncnc2sccc12` [Example 9, 3-((3R,4R)-4-methyl-3-(methyl(thieno[2,3-d]pyrimidin-4-yl)amino)piperidin-1-yl)-3-oxopropanenitrile] was 74.3 °C; that for `C[C@@H]1CCN(c2ncnn3cccc23)C[C@@H]1N(C)c1ncnn2cccc12` [Example 17, N-Methyl-N-((3R,4R)-4-methyl-1-(pyrrolo[1,2-f][1,2,4]triazin-4-yl)piperidin-3-yl)pyrrolo[1,2-f][1,2,4]triazin-4-amine] was 103.4 °C.
Then `C[C@@H]1CCNC[C@@H]1N(C)c1nccc2[nH]ccc12` [Example 18, N-Methyl-N-((3R,4R)-4-methylpiperidin-3-yl)-1H-pyrrolo[3,2-c]pyridin-4-amine], with 126.9 °C.
